Data: patent US5563125A, “5'-deoxy-5'-(substituted)alkylthioribose compounds and their pharmaceutical compositions” (priority 1992, dated 1996)
Like-named read-outs stand apart in the source and are kept apart here.

Legend:
[1] = tested on: T. b. brucei procyclic trypanosomes (Lab 110 EATRO strain); assay: In vitro antitrypanosomal activity, procyclic trypanosomes in T2 medium; type: cell-based, Trypanosoma brucei brucei; settings: 3-5 days
Experimental: The antitrypanosomal effects of HETA and other nucleosides were examined in the Lab 110 EATRO strain of T. b. brucei in culture.
Cells were cultured as described in Bacchi et al. Exp. Parasitol. 68, 392, 1989. Cells were then grown in the presence of the compounds for 3-5 days. Drugs were filtered, sterilized and added aseptically. Control cells achieved a maximum density of 1.5-3.5×10^7 /ml. Hemocytometer counts were made daily and the results were expressed as a percent of control growth. IC50 plots were obtained by graphing log (drug) vs. percent growth inhibition.
Trypanocidal Activity of MTA and MTR Analogs
against T. b. brucei procyclic trypanosomes in T2 medium.

[2] = target: T1, Mouse Liver MTA Phosphorylase (Mus musculus, UniProt Q9CQ65); assay: Mouse liver MTA phosphorylase substrate/inhibitor assay; type: biochemical; settings: for Substrate (% Control): substrate activity relative to MTA
T1 sequence (Q9CQ65 1-283): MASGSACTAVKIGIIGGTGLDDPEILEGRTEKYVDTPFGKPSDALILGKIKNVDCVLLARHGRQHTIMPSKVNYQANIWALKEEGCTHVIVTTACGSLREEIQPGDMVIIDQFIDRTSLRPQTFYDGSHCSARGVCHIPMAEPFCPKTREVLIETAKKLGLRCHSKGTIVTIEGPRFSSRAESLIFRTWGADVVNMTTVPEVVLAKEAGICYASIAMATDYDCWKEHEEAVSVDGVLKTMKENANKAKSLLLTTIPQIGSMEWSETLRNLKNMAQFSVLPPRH
Experimental: ^a MTA phosphorylase activity was assayed as described in Sufrin et

[3] = target: T2, T. b. brucei MTA phosphorylase (Trypanosoma brucei, UniProt Q57XS4); assay: T. b. brucei MTA phosphorylase substrate assay; type: biochemical; settings: for Percent Control Activity: relative to MTA
T2 construct: MTA or analogs as substrates
T2 sequence (Q57XS4 entry or part of it): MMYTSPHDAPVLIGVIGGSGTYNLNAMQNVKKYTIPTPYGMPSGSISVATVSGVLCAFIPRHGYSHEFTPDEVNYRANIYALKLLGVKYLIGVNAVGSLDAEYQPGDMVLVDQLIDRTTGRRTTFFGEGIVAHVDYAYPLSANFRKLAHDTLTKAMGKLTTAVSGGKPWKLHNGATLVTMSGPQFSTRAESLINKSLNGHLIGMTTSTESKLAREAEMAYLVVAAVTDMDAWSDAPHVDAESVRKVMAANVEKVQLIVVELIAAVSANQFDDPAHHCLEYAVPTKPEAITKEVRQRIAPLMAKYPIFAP
Experimental: ^a MTA phosphorylase was assayed according to Ghoda et al., using 200
μM MTA (saturating) or analogs as substrates. Specific activities of
the dialyzed enzyme preparations were with 50 mM PO4, 104.97 n
moles/mg protein/h; without PO4, 28.27 n moles/mg protein/h. Results
are expressed as percent activity compared to as substrate with and
without PO4, respectively.

[4] = tested on: L1210 cells (MTA phosphorylase-deficient); assay: Growth inhibition of L1210 cells; type: cell-based, mouse; settings: L1210, 48 h
Experimental: (§1) L1210, L5178Y and MOLT-4 cell lines were grown in RPMI 1640 and 10% Nu Serum (Collaborative Research Inc., Lexington, Mass.) and CCRF-CEM cells were grown in 10% Horse Serum (Gibco Laboratories, Grand Island, N.Y.) and maintained as previously described for suspension cultures by Pera et al. in Cancer Res. 46, 1148, 1986. Cell cultures (0.3×10^5 cells/ml) were treated with each compound at 0.1 to 1000 μM to determine the concentration that inhibited growth by 50% (IC50) at 48 hr for the L1210 and L5178Y cells and at 96 hr for the CCRF-CEM and MOLT-4 cells. The incubation times allowed approximately 4 cell doublings in each cell line. All compounds were freshly prepared prior to treatment by dissolving in DMSO and diluting in serum-free media. Cells were counted by electron particle counting (Model XF' Coulter Counter; Coulter Electronics, Hialeah, Fla.).
(§2) For each compound, the concentrations required to inhibit cell growth by 50% (IC50 values) are shown in Table 7 for two murine leukemic cell lines, L1210 and L5178Y [MTA phosphorylase-deficient and MTA phosphorylase-containing, respectively] and two human leukemic cell lines, CCRF-CEM and MOLT-4 [MTA phosphorylase-deficient and MTA phosphorylase-containing, respectively]. ETA, MFETA, HETA and PTA had lower IC50 values in the L5178Y cells than in the L1210 cells. […] This differential is consistent with the possibility that, in L5178Y cells, MFETA is cleaved by MTA phosphorylase to the growth inhibitory metabolite, 5-monofluoroethylthioribose-1-phosphate (MFETR-1-P).

[5] = tested on: L5178Y cells (MTA phosphorylase-containing); assay: Growth inhibition of L5178Y cells; type: cell-based, mouse; settings: 48 h
Experimental: as §1, §2

[6] = tested on: CCRF-CEM cells (MTA phosphorylase-deficient); assay: Growth inhibition of CCRF-CEM cells; type: cell-based, human; settings: 96 h
Experimental: as §1, §2

[7] = tested on: MOLT-4 cells (MTA phosphorylase-containing); assay: Growth inhibition of MOLT-4 cells; type: cell-based, human; settings: MOLT-4, 96 h
Experimental: as §1, §2

[8] = tested on: Trichomonas vaginalis ATCC 3001; assay: Minimum lethal concentration against Trichomonas vaginalis, multiwell plate assay, ATCC 3001; type: cell-based
Description: (§3) Preliminary in vitro evaluation of HETA and other compounds against isolates of Trichomonas vaginalis was done.
(§4) Values are expressed as μg of compound per ml of medium required to inhibit growth and motility of the parasite in a multiwell plate assay as described by Meingassner, Mieth, Czok, Lindmark and Muller (1978) Antimicrob. Agents and Chemother. 13, 1-3. The present drug used for treatment--metronidazole (Flagyl®) is included for comparison. Strain ATCC 50143 (CDC-85) was refractory to chemotherapeutic dose levels of metronidazole. (ND=not done).

[9] = tested on: Trichomonas vaginalis ATCC 50143 (CDC-85), metronidazole-resistant; assay: Minimum lethal concentration against Trichomonas vaginalis, multiwell plate assay, ATCC 50143 (CDC-85); type: cell-based
Description: as §3, §4

[10] = tested on: P. falciparum; assay: In vitro antimalarial activity of HETA; type: cell-based, Plasmodium falciparum; settings: for growth of the microorganism inhibited in an in vitro screen: P. falciparum in vitro screen
[11] = tested on: EATRO 110 strain of T. b. brucei; assay: Bloodstream forms of African trypanosomes grown in vitro, EATRO 110; type: cell-based; settings: day 4
Experimental: (§5) Cultures were initiated directly from infected mouse blood into Falcon 24 well plates containing 1 ml of Iscoves modified Dulbecco's medium plus 20% horse serum, 2 mM pyruvate, 2 mM glutamine, and 0.2 uM mercaptoethanol. Initial cell counts were 2.5-5.0×10^5 /ml. Plates were incubated at 37 C. in 5 percent CO2. HETA was dissolved in the medium and filter sterilized. One half the volume of each well was replaced with fresh medium each day.
(§6) Cell counts were made daily. Data are given as percent inhibition of growth as determined by hemocytometer counts on day 4 as compared to control cultures without drug.
(§7) In Table 2, EATRO 110 is a strain of T. b. brucei; and KETRI 2002, and KETRI 243 are T. b. rhodesiense clinical isolates.

[12] = tested on: KETRI 2002 T. b. rhodesiense clinical isolate; assay: Bloodstream forms of African trypanosomes grown in vitro, KETRI 2002; type: cell-based; settings: day 4
Experimental: as §5, §6, §7

[13] = tested on: KETRI 243 T. b. rhodesiense clinical isolate; assay: Bloodstream forms of African trypanosomes grown in vitro, KETRI 243; type: cell-based; settings: day 4
Experimental: as §5, §6, §7

[14] = tested on: T. b. brucei LAB 110 EATRO; assay: In vivo antitrypanosomal activity, LAB EATRO mouse infection model; settings: miniosmotic pump
Experimental: ^a Animals were treated with surgically implanted miniosmotic pumps
loaded as per manufacturers instructions with MTA, HETA or MFETA suspende

N=C(N)c1ccc(N=NNc2ccc(C(=N)N)cc2)cc1 [BERENIL]
IC50 ([1]; Trypanosoma brucei): 0.2 µM

Nc1ncnc2c1ncn2[C@@H]1O[C@H](CSCCBr)[C@@H](O)[C@H]1O [BETA, 5'-deoxy-5'-(bromoethylthio)adenosine]
IC50 [1]: 0.5 µM
Ki [2]: 6.5 µM
Substrate (% Control) [2]: 38 % Control
Percent Control Activity ([3]; +50 mM PO4, 200 μM substrate): 88.8%
Percent Control Activity ([3]; No PO4, 200 μM substrate): 120%
IC50 [4]: 150 µM
IC50 [5]: 150 µM
IC50 [6]: 250 ± 50 µM
IC50 [7]: 25 ± 10 µM

Nc1ncnc2c1ncn2[C@@H]1O[C@H](CSCCCl)[C@@H](O)[C@H]1O [CETA, 5'-deoxy-5'-(chloroethylthio)adenosine]
IC50 [1]: 2.5 µM
Minimum lethal concentration (MLC) ([8]; ATCC 3001, 24 h): 93.7 µg/mL
Minimum lethal concentration (MLC) ([8]; ATCC 3001, 48 h): 23.4 µg/mL
Minimum lethal concentration (MLC) ([9]; ATCC 50143, 24 h): 187.5 µg/mL
Minimum lethal concentration (MLC) ([9]; ATCC 50143, 48 h): 11.7 µg/mL
activity against metronidazole(Flagyl)-resistant strain CDC-85 ([9]; CDC-85 strain, preliminary in vitro evaluation): active
Ki [2]: 12 µM
Substrate (% Control) [2]: 35 % Control
Percent Control Activity ([3]; +50 mM PO4, 200 μM substrate): 60%
Percent Control Activity ([3]; No PO4, 200 μM substrate): 94.4%
IC50 [4]: 250 µM
IC50 [5]: 200 µM
IC50 [6]: 240 ± 90 µM
IC50 [7]: 30 ± 20 µM

CCSC[C@H]1O[C@@H](n2cnc3c(N)ncnc32)[C@H](O)[C@@H]1O [ETA, reference compound]
IC50 ([1]; Trypanosoma brucei): 138 µM
growth of the microorganism inhibited in an in vitro screen [10]: inhibited
Substrate (% Control) [2]: 95 % Control
Percent Control Activity ([3]; +50 mM PO4, 200 μM substrate): 76.2%
Percent Control Activity ([3]; No PO4, 200 μM substrate): 100%
IC50 ([4]; Mus musculus): 800 ± 100 µM
IC50 ([5]; Mus musculus): 250 ± 100 µM
IC50 ([6]; Homo sapiens): 200 ± 100 µM
IC50 ([7]; Homo sapiens): 20 ± 10 µM

Nc1ncnc2c1ncn2[C@@H]1O[C@H](CSCCO)[C@@H](O)[C@H]1O [HETA, 5'-deoxy-5'-(hydroxyethylthio)adenosine]
IC50 ([1]; Trypanosoma brucei): 0.5 µM
percent inhibition of growth ([11]; 0.1 um HETA): 0%
percent inhibition of growth ([11]; 0.5 um HETA): 44%
percent inhibition of growth ([11]; 1.0 um HETA): 59%
percent inhibition of growth ([11]; 2.25 um HETA): 70%
percent inhibition of growth ([12]; 0.1 um HETA): 0%
percent inhibition of growth ([12]; 0.5 um HETA): 0%
percent inhibition of growth ([12]; 1.0 um HETA): 15%
percent inhibition of growth ([12]; 2.25 um HETA): 60%
percent inhibition of growth ([13]; 0.1 um HETA): 0%
percent inhibition of growth ([13]; 0.5 um HETA): 0%
percent inhibition of growth ([13]; 1.0 um HETA): 0%
percent inhibition of growth ([13]; 2.25 um HETA): 0%
% Cured ([14]; 25 mg/kg/day, 7 days): 73%
MSD (mean survival in days of animals dying of infection) ([14]; 25 mg/kg/day, 7 days): 15.3 days
Number Cured Total ([14]; 25 mg/kg/day, 7 days): 11/15
% Cured ([14]; 50 mg/kg/day, 7 days): 68%
MSD (mean survival in days of animals dying of infection) ([14]; 50 mg/kg/day, 7 days): 14.5 days
Number Cured Total ([14]; 50 mg/kg/day, 7 days): 17/25
% Cured ([14]; 50 mg/kg/day, 14 days): 60%
MSD (mean survival in days of animals dying of infection) ([14]; 50 mg/kg/day, 14 days): 18.1 days
Number Cured Total ([14]; 50 mg/kg/day, 14 days): 9/15
% Cured ([14]; 100 mg/kg/day, 7 days): 87%
MSD (mean survival in days of animals dying of infection) ([14]; 100 mg/kg/day, 7 days): 26.0 days
Number Cured Total ([14]; 100 mg/kg/day, 7 days): 13/15
% Cured ([14]; 150 mg/kg/day, 7 days): 90%
MSD (mean survival in days of animals dying of infection) ([14]; 150 mg/kg/day, 7 days): 14.5 days
Number Cured Total ([14]; 150 mg/kg/day, 7 days): 18/20
activity against the C1-NIH strain ([8]; C1-NIH strain, preliminary in vitro evaluation): displays activity
growth of the microorganism inhibited in an in vitro screen [10]: inhibited
IC50 ([10]; Plasmodium falciparum, P. falciparum in vitro): ~22 µM
Ki ([2]; mouse liver MTA phosphorylase, read-out: K1): 26 µM
Substrate (% Control) [2]: 34 % Control
Percent Control Activity ([3]; +50 mM PO4, 200 μM substrate): 85%
Percent Control Activity ([3]; No PO4, 200 μM substrate): 100%
metabolism by T. b. brucei MTA phosphorylase ([3]; compared with MTA): as effectively as MTA itself
IC50 ([4]; Mus musculus): 1000 µM
IC50 ([5]; Mus musculus): 500 µM
IC50 ([6]; Homo sapiens): 100 µM
IC50 ([7]; Homo sapiens): 40 µM
